# Measurements reported in ChEMBL document CHEMBL4422630, “Identification of substituted 5-membered heterocyclic compounds as potential anti-leukemic agents” (Eur J Med Chem, 2019).
# Activity calls are given as the source filed them. The calls are words filed in the database; no cut-off is given here.
# Assays:
# [1] = Apparent permeability of compound form apical to basolateral side in human Caco2 cells; assay type: ADME, cell-based; settings: Caco-2
# [2] = Efflux ratio of apparent permeability across basolateral to apical side over apical to basolateral side in human Caco2 cells; assay type: ADME, cell-based; settings: Caco-2
# [3] = Permeability of compound at pH 7.4 assessed as drug retention by PAMPA; assay type: ADME
# [4] = Apparent permeability of compound form basolateral to apical side in human Caco2 cells; assay type: ADME, cell-based; settings: Caco-2
# [5] = Permeability of compound at pH 7.4 by PAMPA; assay type: ADME; settings: read-out: Peff
# BJ = experiment: Antiproliferative activity against human BJ assessed as cell viability after 72 hrs by CellTiter-Glo assay; assay type: functional, cell-based
# B-ALL [6] = experiment: Antiproliferative activity against mouse B-ALL BCR-ABL double knockout cells assessed as reduction in cell viability after 72 hrs by CellTiter-Glo assay; assay type: functional, cell-based
# SUP-B15 [7] = experiment: Antiproliferative activity against human SUP-B15 assessed as reduction in cell viability after 72 hrs by CellTiter-Glo assay; assay type: functional, cell-based; settings: SUP-B15, 72 h
# UoC-B1 = experiment: Antiproliferative activity against human UOCB1 assessed as reduction in cell viability after 72 hrs by CellTiter-Glo assay; assay type: functional, cell-based; settings: UoC-B1, 72 h
# KOPN-8 [8] = experiment: Antiproliferative activity against human KOPN8 assessed as reduction in cell viability after 72 hrs by CellTiter-Glo assay; assay type: functional, cell-based; settings: KOPN-8, 72 h
# NALM-6 = experiment: Antiproliferative activity against human NALM6 assessed as reduction in cell viability after 72 hrs by CellTiter-Glo assay; assay type: functional, cell-based; settings: NALM-6, 72 h
# B-ALL [9] = experiment: Antiproliferative activity against mouse B-ALL cells expressing wild type BCR-ABL assessed as reduction in cell viability after 72 hrs by CellTiter-Glo assay; assay type: functional, cell-based
# [10] = Therapeutic index, ratio of EC50 for human BJ cells to EC50 for mouse B-ALL cells expressing wild type BCR-ABL; assay type: toxicity; settings: human BJ cells versus mouse B-ALL cells expressing wild type BCR-ABL; read-out: Ratio EC50
# MV4-11 = experiment: Antiproliferative activity against human MV411 assessed as reduction in cell viability after 72 hrs by CellTiter-Glo assay; assay type: functional, cell-based; settings: MV4-11, 72 h
# K562 = experiment: Antiproliferative activity against human K562 assessed as reduction in cell viability after 72 hrs by CellTiter-Glo assay; assay type: functional, cell-based; settings: K562, 72 h
# [11] = Half life in simulated gastric fluid; assay type: ADME
# [12] = Half life in human plasma; assay type: ADME, cell-free
# [13] = Half life in mouse microsomes; assay type: ADME, Microsome
# KOPN-8 [14] = experiment: Induction of apoptosis in human KOPN8 cells assessed as late apoptotic cells level after 24 hrs by Annexin V and propidium iodide staining based flow cytometry (reference value: 2%); assay type: functional
# MDA-MB-231 [15] = experiment: Cytotoxicity against human MDA-MB-231 cells at 30 uM after 24 hrs by propidium iodide staining-based fluorescence assay; assay type: functional, cell-based
# SUP-B15 [16] = experiment: Induction of apoptosis in human SUP-B15 cells assessed as late apoptotic cells level after 24 hrs by Annexin V and propidium iodide staining based flow cytometry (reference value: 13.5%); assay type: functional
# SUP-B15 [17] = experiment: Induction of apoptosis in human SUP-B15 cells assessed as decrease in cell viability at 5 uM after 24 hrs by Annexin V/propidium iodide staining-based flow cytometric analysis; assay type: functional
# [18] = Half life in mouse plasma; assay type: ADME, cell-free
# KOPN-8 [19] = experiment: Cell cycle arrest in human KOPN8 cells assessed as reduction in accumulation of cells at G1/G0 phase at 5 uM after 24 hrs by propidium iodide staining-based flow cytometric analysis; assay type: functional
# [20] = Intrinsic clearance in human microsomes; assay type: ADME, Microsome
# SUM149PT = experiment: Cytotoxicity against human SUM149 cells at 1 uM after 24 hrs by propidium iodide staining-based fluorescence assay relative to control; assay type: functional, cell-based
# SUP-B15 [21] = experiment: Induction of apoptosis in human SUP-B15 cells assessed as increase in caspase 3/7 activity after 24 hrs by caspase-Glo 3/7 reagent based luminescence assay; assay type: functional, cell-based
# [22] = Intrinsic clearance in mouse microsomes; assay type: ADME, Microsome
# [23] = Half life in human microsomes; assay type: ADME, Microsome
# MDA-MB-231 [24] = experiment: Cytotoxicity against human MDA-MB-231 cells up to 30 uM after 24 hrs by propidium iodide staining-based fluorescence assay; assay type: functional, cell-based
# [25] = Protein binding in human plasma; assay type: ADME, cell-free; settings: read-out: PPB (converted)
# SUP-B15 [26] = experiment: Cytotoxicity in human SUP-B15 cells assessed as decrease in cell viability after 24 hrs by bis-AAF-RF110 dye based assay; assay type: functional
# KOPN-8 [27] = experiment: Induction of apoptosis in human KOPN8 cells assessed as decrease in cell viability at 5 uM after 24 hrs by Annexin V/propidium iodide staining-based flow cytometric analysis; assay type: functional
# KOPN-8 [28] = experiment: Induction of apoptosis in human KOPN8 cells assessed as late apoptotic cells level after 24 hrs by Annexin V and propidium iodide staining based flow cytometry (reference value: 96.4%); assay type: functional
# B-ALL [29] = experiment: Induction of apoptosis in mouse B-ALL BCR-ABL double knockout cells assessed as increase in caspase 3/7 activity after 24 hrs by caspase-Glo 3/7 reagent based luminescence assay; assay type: functional, cell-based
# SUP-B15 [30] = experiment: Induction of apoptosis in human SUP-B15 cells assessed as decrease in cell viability at […] after 24 hrs by ApoTox-Glo triplex assay; assay type: functional, cell-based
# [31] = Protein binding in mouse plasma; assay type: ADME, cell-free; settings: read-out: PPB (converted)
# SUP-B15 [32] = experiment: Induction of apoptosis in human SUP-B15 cells assessed as late apoptotic cells level after 24 hrs by Annexin V and propidium iodide staining based flow cytometry (reference value: 83%); assay type: functional
# KOPN-8 [33] = experiment: Cell cycle arrest in human KOPN8 cells assessed as increase in accumulation of cells at S phase at 5 uM after 24 hrs by propidium iodide staining-based flow cytometric analysis; assay type: functional
smiles,measurement,setting,value
NC(=O)N1c2ccccc2C=Cc2ccccc21 [CARBAMAZEPINE],Papp A→B,[1],52.4 ×10⁻⁶ cm/s
same,efflux ratio,[2],0.8
same,permeability,[3],21.9%
same,Papp B→A,[4],41.8 ×10⁻⁶ cm/s
same,Papp,[5],266 ×10⁻⁶ cm/s
CNC(=C[N+](=O)[O-])NCCSCc1ccc(CN(C)C)o1 [RANITIDINE],permeability,[3],0%
COc1cc(-c2cc3ccccc3[nH]2)[nH]c1/C=C1\N=C(C)C=C1C,EC50,BJ,8.71 µM
same,EC50,B-ALL [6],12.5 µM
same,EC50,SUP-B15 [7],25.9 µM
same,EC50,UoC-B1,1.49 to 1.5 µM
same,EC50,KOPN-8 [8],14.7 µM
same,EC50,NALM-6,1.07 µM
same,EC50,B-ALL [9],1.24 µM
same,selectivity ratio,[10],7
COc1ccc(O)c(C(=O)NCCc2ccc(-c3cnc(C)s3)cc2)c1,EC50,BJ,8.25 µM
same,EC50,B-ALL [6],22.7 µM
same,EC50,SUP-B15 [7],> 43.3 µM
same,EC50,UoC-B1,24.7 µM
same,EC50,KOPN-8 [8],36.3 µM
same,EC50,NALM-6,1.01 µM
same,EC50,B-ALL [9],9.49 µM
same,EC50,MV4-11,> 10 µM
CS(=O)(=O)c1ccc(-c2cccc3c2OC(CNC(=O)c2ccccc2F)C3)cc1 (stereo not drawn),EC50,BJ,> 43.3 µM
same,EC50,B-ALL [6],36.4 µM
same,EC50,SUP-B15 [7],> 43.3 µM
same,EC50,UoC-B1,> 43.3 µM
same,EC50,KOPN-8 [8],> 43.3 µM
same,EC50,NALM-6,1.75 µM
same,EC50,B-ALL [9],8.88 µM
same,selectivity ratio,[10],> 5
c1ccc2[nH]c(-c3ccc(-c4nc5ccccc5[nH]4)nc3)nc2c1,EC50,BJ,> 43.3 µM
same,EC50,B-ALL [6],34.2 µM
same,EC50,SUP-B15 [7],1.81 µM
same,EC50,UoC-B1,> 43.3 µM
same,EC50,K562,7.33 µM
same,EC50,KOPN-8 [8],1.78 µM
same,EC50,NALM-6,2.47 µM
same,EC50,B-ALL [9],7.89 µM
same,selectivity ratio,[10],> 5
same,EC50,MV4-11,13.7 µM
COc1ccc(-c2[nH]nc(C)c2-c2ccc(OC)c(O)c2)c(O)c1,EC50,BJ,> 43.3 µM
same,EC50,B-ALL [6],28.9 µM
same,EC50,SUP-B15 [7],> 43.3 µM
same,EC50,UoC-B1,6.1 µM
same,EC50,KOPN-8 [8],34.6 µM
same,EC50,NALM-6,> 21.6 µM
same,EC50,B-ALL [9],8.53 µM
same,selectivity ratio,[10],> 5
COc1ccc(O)c(-c2cc(-c3cc(Cl)ccc3O)[nH]n2)c1,EC50,BJ,25.1 µM
same,EC50,B-ALL [6],11.2 µM
same,EC50,SUP-B15 [7],> 43.3 µM
same,EC50,UoC-B1,13.6 µM
same,EC50,KOPN-8 [8],15.8 µM
same,EC50,NALM-6,0.005 µM
same,EC50,B-ALL [9],4.94 µM
same,selectivity ratio,[10],5
O=C(O)CCCc1ccc(N(CCCl)CCCl)cc1 [CHLORAMBUCIL],half-life,[11],15.3 h
COc1ccc(O)c(-c2cc(-c3ccc(Cl)cc3)[nH]n2)c1,EC50,BJ,> 43.3 µM
same,EC50,B-ALL [6],27.8 µM
same,EC50,SUP-B15 [7],5.23 µM
same,EC50,UoC-B1,10.6 µM
same,EC50,KOPN-8 [8],1.4 µM
same,EC50,NALM-6,> 21.6 µM
same,EC50,B-ALL [9],8.04 µM
same,selectivity ratio,[10],> 5
same,EC50,MV4-11,0.65 µM
CCN(CC)c1ccc(-n2cnnc2-c2cccc(O)c2)cc1,EC50,BJ,> 49.2 µM
same,EC50,B-ALL [6],> 49.1 µM
same,EC50,SUP-B15 [7],> 49.1 µM
same,EC50,UoC-B1,1.78 µM
same,EC50,K562,1.07 µM
same,EC50,KOPN-8 [8],> 49.1 µM
same,EC50,NALM-6,1.06 µM
same,EC50,B-ALL [9],2.03 µM
same,selectivity ratio,[10],> 24
same,EC50,MV4-11,0.85 µM
CC[C@]1(O)C[C@@H]2CN(CCc3c([nH]c4ccccc34)[C@@](C(=O)OC)(c3cc4c(cc3OC)N(C)[C@H]3[C@@](O)(C(=O)OC)[C@H](OC(C)=O)[C@]5(CC)C=CCN6CC[C@]43[C@@H]65)C2)C1 [VINBLASTINE],Papp A→B,[1],0.621 ×10⁻⁶ cm/s
same,efflux ratio,[2],21.1
same,Papp B→A,[4],13.1 ×10⁻⁶ cm/s
CCCSc1ccc2nc(NC(=O)OC)[nH]c2c1 [ALBENDAZOLE],permeability,[3],44.1%
same,Papp,[5],284 ×10⁻⁶ cm/s
O=C(Cc1ccccc1)Nc1ccc(-c2nc3cc(NC(=O)Cc4ccccc4)ccc3[nH]2)cc1,half-life,[12],> 48 h
same,half-life,[13],5.44 h
same,EC50,BJ,8.35 µM
same,EC50,B-ALL [6],0.784 µM
same,EC50,SUP-B15 [7],0.27 µM
same,Activity,KOPN-8 [14],18.5%
same,Activity,MDA-MB-231 [15],Active
same,Activity,SUP-B15 [16],18.6%
same,Activity,SUP-B15 [17],Active
same,EC50,UoC-B1,> 43.3 µM
same,half-life,[18],> 48 h
same,Activity,KOPN-8 [19],Active
same,half-life,[11],> 48 h
same,CLint scaled,[20],5.85 mL/min/kg
same,EC50,K562,> 10 µM
same,EC50,KOPN-8 [8],0.18 µM
same,Activity,SUM149PT,Active
same,Activity,SUP-B15 [21],Active
same,EC50,NALM-6,4.24 µM
same,CLint scaled,[22],10.5 mL/min/kg
same,half-life,[23],3.56 h
same,Papp A→B,[1],0.206 ×10⁻⁶ cm/s
same,Activity,MDA-MB-231 [24],inactive
same,fraction unbound,[25],0.003
same,Activity,SUP-B15 [26],Active
same,Activity,KOPN-8 [27],Active
same,efflux ratio,[2],20.1
same,Activity,KOPN-8 [28],80.1%
same,Activity,B-ALL [29],inactive
same,permeability,[3],74.6%
same,Activity,SUP-B15 [30],Active
same,Papp B→A,[4],4.13 ×10⁻⁶ cm/s
same,EC50,B-ALL [9],0.635 µM
same,fraction unbound,[31],0.002
same,Activity,SUP-B15 [32],24.2%
same,Activity,KOPN-8 [33],Active
same,selectivity ratio,[10],13
same,Papp,[5],204 ×10⁻⁶ cm/s
same,EC50,MV4-11,0.716 µM
CC1CC(OC(=O)C(O)c2ccccc2)CC(C)(C)N1C (stereo not drawn) [EUCATROPINE],half-life,[12],0.42 h
same,half-life,[18],2.11 h
NC(=O)c1sccc1Nc1[nH]c(Nc2cccc(OC(F)(F)F)c2)nc2nncc1-2,EC50,BJ,17 µM
same,EC50,B-ALL [6],14.6 µM
same,EC50,SUP-B15 [7],> 43.3 µM
same,EC50,UoC-B1,12.9 µM
same,EC50,KOPN-8 [8],13.1 µM
same,EC50,NALM-6,0.005 µM
same,EC50,B-ALL [9],3.14 µM
same,selectivity ratio,[10],5
O=C(c1cc(-c2csc(-c3ccc(O)cc3)n2)c[nH]1)N1CCCC1,EC50,BJ,> 43.3 µM
same,EC50,B-ALL [6],> 43.3 µM
same,EC50,SUP-B15 [7],> 43.3 µM
same,EC50,UoC-B1,> 43.3 µM
same,EC50,KOPN-8 [8],> 43.3 µM
same,EC50,NALM-6,> 43.3 µM
same,EC50,B-ALL [9],3.98 µM
same,selectivity ratio,[10],> 11
